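Dose response: 5 concentrations. Exposure: 48 h. Format: 96-well plates. Endpoint: linear interpolation; highest concentration if not reached. TGI marks complete inhibition of growth.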
Columns and labels:
Assay in all cases: DTP human tumour cell line panel, 48 h
SK-OV-3 ovarian = test system: SK-OV-3 ovarian
MOLT-4 leukemia = test system: MOLT-4 leukemia
LXFL 529 NSCLC = test system: LXFL 529 NSCLC
A549 NSCLC = test system: A549 NSCLC
SK-MEL-28 melanoma = test system: SK-MEL-28 melanoma
NCI-H460 lung = test system: NCI-H460 lung
HOP-92 NSCLC = test system: HOP-92 NSCLC
U251 CNS = test system: U251 CNS
IGROV1 ovarian = test system: IGROV1 ovarian
SK-MEL-2 melanoma = test system: SK-MEL-2 melanoma
HT29 colon = test system: HT29 colon
UACC-62 melanoma = test system: UACC-62 melanoma
TK-10 renal = test system: TK-10 renal
SF-539 CNS = test system: SF-539 CNS
SN12C renal = test system: SN12C renal
MALME-3M melanoma = test system: MALME-3M melanoma
786-0 renal = test system: 786-0 renal
UACC-257 melanoma = test system: UACC-257 melanoma
COLO 205 colon = test system: COLO 205 colon
DLD-1 colon = test system: DLD-1 colon
RXF-631 renal = test system: RXF-631 renal
SK-MEL-5 melanoma = test system: SK-MEL-5 melanoma
SW-620 colon = test system: SW-620 colon
NCI-H522 lung = test system: NCI-H522 lung
M14 melanoma = test system: M14 melanoma
RPMI-8226 leukemia = test system: RPMI-8226 leukemia
CCRF-CEM leukemia = test system: CCRF-CEM leukemia
DMS 114 small cell lung = test system: DMS 114 small cell lung
DMS 273 small cell lung = test system: DMS 273 small cell lung
SR leukemia = test system: SR leukemia
LOX IMVI melanoma = test system: LOX IMVI melanoma
NCI-H226 lung = test system: NCI-H226 lung
SNB-19 CNS = test system: SNB-19 CNS
HOP-18 NSCLC = test system: HOP-18 NSCLC
CAKI-1 renal = test system: CAKI-1 renal
K-562 leukemia = test system: K-562 leukemia
SF-268 CNS = test system: SF-268 CNS
HL-60(TB) leukemia = test system: HL-60(TB) leukemia
RXF 393 renal = test system: RXF 393 renal
UO-31 renal = test system: UO-31 renal
SF-295 CNS = test system: SF-295 CNS
M19-MEL melanoma = test system: M19-MEL melanoma
KM12 colon = test system: KM12 colon
OVCAR-4 ovarian = test system: OVCAR-4 ovarian
XF 498 CNS = test system: XF 498 CNS
SNB-75 CNS = test system: SNB-75 CNS
OVCAR-8 ovarian = test system: OVCAR-8 ovarian
OVCAR-5 ovarian = test system: OVCAR-5 ovarian
OVCAR-3 ovarian = test system: OVCAR-3 ovarian
SNB-78 CNS = test system: SNB-78 CNS
NCI-H23 lung = test system: NCI-H23 lung
HOP-62 NSCLC = test system: HOP-62 NSCLC
ACHN renal = test system: ACHN renal
A498 renal = test system: A498 renal
EKVX NSCLC = test system: EKVX NSCLC
HCT-116 colon = test system: HCT-116 colon
HCC-2998 colon = test system: HCC-2998 colon
HCT-15 colon = test system: HCT-15 colon
KM20L2 colon = test system: KM20L2 colon
MDA-MB-435 = test system: MDA-MB-435
MDA-MB-231 breast = test system: MDA-MB-231 breast
NCI/ADR-RES ovarian = test system: NCI/ADR-RES ovarian
DU-145 prostate = test system: DU-145 prostate
MDA-N = test system: MDA-N
PC-3 prostate = test system: PC-3 prostate
BT-549 breast = test system: BT-549 breast
HS 578T breast = test system: HS 578T breast
T-47D breast = test system: T-47D breast
MCF7 breast = test system: MCF7 breast

Measured: TGI

CC1CC2CC(=O)CC3(C1)C2CCCN3CCCO (configuration not stated)
> 100 µM: SK-OV-3 ovarian | MOLT-4 leukemia | LXFL 529 NSCLC | A549 NSCLC | SK-MEL-28 melanoma | NCI-H460 lung | HOP-92 NSCLC | U251 CNS | IGROV1 ovarian | SK-MEL-2 melanoma | HT29 colon | UACC-62 melanoma | TK-10 renal | SF-539 CNS | SN12C renal | MALME-3M melanoma | 786-0 renal | UACC-257 melanoma | COLO 205 colon | DLD-1 colon | RXF-631 renal | SK-MEL-5 melanoma | SW-620 colon | NCI-H522 lung | M14 melanoma | RPMI-8226 leukemia | CCRF-CEM leukemia | DMS 114 small cell lung | DMS 273 small cell lung | SR leukemia | LOX IMVI melanoma | NCI-H226 lung | SNB-19 CNS | HOP-18 NSCLC | CAKI-1 renal | K-562 leukemia | SF-268 CNS | HL-60(TB) leukemia | RXF 393 renal | UO-31 renal | SF-295 CNS | M19-MEL melanoma | KM12 colon | OVCAR-4 ovarian | XF 498 CNS | SNB-75 CNS | OVCAR-8 ovarian | OVCAR-5 ovarian | OVCAR-3 ovarian | SNB-78 CNS | NCI-H23 lung | HOP-62 NSCLC | ACHN renal | A498 renal | EKVX NSCLC | HCT-116 colon

NCCCOCC(=O)O
> 100 µM: SK-OV-3 ovarian | MOLT-4 leukemia | HCC-2998 colon | LXFL 529 NSCLC | A549 NSCLC | SK-MEL-28 melanoma | HOP-92 NSCLC | U251 CNS | IGROV1 ovarian | SK-MEL-2 melanoma | HT29 colon | UACC-62 melanoma | TK-10 renal | SF-539 CNS | SN12C renal | MALME-3M melanoma | 786-0 renal | UACC-257 melanoma | COLO 205 colon | SK-MEL-5 melanoma | SW-620 colon | HCT-15 colon | RPMI-8226 leukemia | DMS 114 small cell lung | DMS 273 small cell lung | SR leukemia | NCI-H226 lung | KM20L2 colon | SNB-19 CNS | K-562 leukemia | SF-268 CNS | RXF 393 renal | UO-31 renal | SF-295 CNS | M19-MEL melanoma | KM12 colon | OVCAR-4 ovarian | SNB-75 CNS | OVCAR-8 ovarian | OVCAR-5 ovarian | OVCAR-3 ovarian | SNB-78 CNS | NCI-H23 lung | ACHN renal | EKVX NSCLC | HCT-116 colon

CCCCc1c2c(nc3c1CCc1cc4cc5c(nc4nc1-3)-c1nc3c(c(CCCC)c1CC5)CCCC3)CCCC2
71.4 µM: RXF 393 renal
31.5 µM: HT29 colon
52 µM: UACC-62 melanoma
> 100 µM: SK-OV-3 ovarian | MOLT-4 leukemia | HCC-2998 colon | LXFL 529 NSCLC | A549 NSCLC | SK-MEL-28 melanoma | NCI-H460 lung | U251 CNS | IGROV1 ovarian | TK-10 renal | SF-539 CNS | SN12C renal | MALME-3M melanoma | 786-0 renal | UACC-257 melanoma | COLO 205 colon | DLD-1 colon | SW-620 colon | NCI-H522 lung | M14 melanoma | HCT-15 colon | RPMI-8226 leukemia | CCRF-CEM leukemia | DMS 273 small cell lung | SR leukemia | LOX IMVI melanoma | SNB-19 CNS | K-562 leukemia | SF-268 CNS | HL-60(TB) leukemia | UO-31 renal | SF-295 CNS | M19-MEL melanoma | KM12 colon | SNB-75 CNS | OVCAR-8 ovarian | SNB-78 CNS | NCI-H23 lung | HOP-62 NSCLC | ACHN renal | EKVX NSCLC | HCT-116 colon
69.3 µM: KM20L2 colon
88 µM: DMS 114 small cell lung
89.1 µM: NCI-H226 lung

O=C1NC(=O)/C(=C/c2ccc(S(=O)(=O)N/N=C/c3ccc(Cl)cc3)cc2)N1
> 100 µM: SK-OV-3 ovarian | MOLT-4 leukemia | HCC-2998 colon | MDA-MB-435 | A549 NSCLC | SK-MEL-28 melanoma | NCI-H460 lung | HOP-92 NSCLC | U251 CNS | MDA-MB-231 breast | IGROV1 ovarian | SK-MEL-2 melanoma | HT29 colon | UACC-62 melanoma | TK-10 renal | SN12C renal | MALME-3M melanoma | 786-0 renal | UACC-257 melanoma | COLO 205 colon | SK-MEL-5 melanoma | SW-620 colon | M14 melanoma | HCT-15 colon | RPMI-8226 leukemia | CCRF-CEM leukemia | NCI/ADR-RES ovarian | SR leukemia | LOX IMVI melanoma | NCI-H226 lung | DU-145 prostate | SNB-19 CNS | MDA-N | CAKI-1 renal | K-562 leukemia | PC-3 prostate | SF-268 CNS | HL-60(TB) leukemia | RXF 393 renal | UO-31 renal | SF-295 CNS | BT-549 breast | KM12 colon | HS 578T breast | OVCAR-4 ovarian | SNB-75 CNS | OVCAR-8 ovarian | OVCAR-5 ovarian | OVCAR-3 ovarian | NCI-H23 lung | HOP-62 NSCLC | ACHN renal | T-47D breast | A498 renal | EKVX NSCLC | MCF7 breast | HCT-116 colon
